The nature of data set [1]: Liposomal CTC and MTC PK, single slow intravenous bolus, plasma HPLC. The data set is classed as in vivo. As to conditions: Balb/c mice.
Experimental: 5 μL of each plasma sample was mixed with 395 μL methanol containing 1% formic acid. Sample mixtures were well mixed by vortexing. […] Samples were vortexed and then centrifuged at 10000 RPM for 10 min at room temperature. 200 μL of supernatant was removed from each sample without disturbing pellet and analyzed by HPLC. If the amount of plasma permitted, this analysis was duplicated.
The concentration of STC in the plasma samples was quantified by standard curve constructed by analyzing plasma samples containing known amount of STC. PK profiles were analyzed.
Another data set relates to mouse CLP sepsis model. Description: Survival Study 1 (TP-936), CLP sepsis efficacy. The data set is classed as in vivo, C57BL/6 mice. As to conditions: CLP mice treated with saline and imipenem (imipenem-treated control). The source says: Male and/or female C57BL/6 mice ordered from Envigo Laboratories or the Jackson Lab (Bar Harbor, Maine) were acclimated to housing conditions and handled in accordance with Animal Use Protocol (AUP) number TP-05. The animals were acclimated for approximately 1 week prior to study start. Only animals deemed healthy were included in this study. Animals were fed irradiated Teklad Global Rodent Diet 2918 and water ad libitum. Mice were group housed 5/cage in static cages with irradiated Teklad ⅛″ corn cob bedding 7902 inside bioBubble® Clean Rooms that provide H.E.P. A filtered air into the bubble environment at 100 complete air changes per hour. The environment was controlled to a temperature range of 74°±5° F. and a humidity range of 30-70%. Treatment groups were identified by cage card. Individual mice were identified by indelible marker on the base of the tail. All procedures carried out in this experiment were conducted in compliance with the laws, regulations, and guidelines of the National Institutes of Health and with the approval of the TransPharm Animal Care and Use Committee.
On Day −1, male and/or female mice were anesthetized through use of isoflurane and brought to a surgical plane. […]
Animals were monitored continually post-surgery, at least once every 2-3 minutes for approximately 30 minutes, until the animals had recovered and were able to move about on their own. […]

In data set [1], `CC(/C=C/C=C(\C)C(=O)O)=C\C=C\C=C(C)\C=C\C=C(/C)C(=O)O` [STC free drug, sodium trans-crocetinate] had an AUC of 0.26 mg·h/mL and a T1/2 of 28.2 min.

In the data set with mouse CLP sepsis model, `C[C@@H](O)[C@H]1C(=O)N2C(C(=O)O)=C(SCCN=CN)C[C@H]12` [imipenem] displayed a mortality of 50%.

In general, AUC refers to concentration integrated over time. The term mortality denotes the share of the test organisms that died. Read a low mortality as more survivors.

For the origin of these results see US20260191810A1, “CAROTENOID COMPOSITIONS AND USES THEREOF” (L.E.A.F. HOLDINGS GROUP LLC, priority 2019, published 2026).
